Laboratory results reported in patent publication US20070099869A1, “Association product of α-glycosyl α,α-trehalose with ionic metal compound” (KABUSHIKI KAISHA HAYASHIBARA SEIBUTSU KAGAKU KENKYUJO, priority 2003, published 2007).

Columns and labels:
[1] = Inhibition of deterioration (browning) of L-ascorbic acid in the presence of metal ion; type: physicochemical; settings: 50° C., sealed vial
Description: L-Ascorbic acid deteriorates rapidly by the oxidative degradation in the presence of iron and copper ions and causes browning. The effects of α-maltosyl α,α-trehalose on the phenomenon were investigated as follows. Five kinds of aqueous solutions, having respective compositions described in Table 8, were prepared. Aqueous solutions of L-ascorbic acid alone or L-ascorbic acid and metal ion compounds were used as controls. The test solutions were prepared by adding α-maltosyl α,α-trehalose to the control solutions. Ten milliliters of each of these test and control solutions were placed in different 20 ml-vials and sealed. The vials were preserved at 50° C. […] After the preservation, the degree of coloring of each solution was measured. In the case of the control solutions containing L-ascorbic acid alone, the degrees of coloring were measured at the preservation periods of 40 hours and 96 hours. The absorbance at 420 nm (within the visible light range) of each sample was measured for the degree of coloring.

[2] = Hygroscopicity (deliquescence) test at relative humidity 52.8%; type: physicochemical
Description: In order to compare the hygroscopicity (deliquescent property) of an associated complex of α-maltosyl α,α-trehalose and calcium chloride with that of a control, calcium chloride which is known to have a high deliquescent property, the following hygroscopicity test was carried out. The crystalline associated complexes of α-maltosyl α,α-trehalose and calcium chloride, prepared according to the method in Experiment 2-1 and calcium chloride dehydrate, were used as test samples. The moisture content (weight of moisture per one gram of the sample) of each sample was measured by conventional drying loss method. […] The amount of moisture per one gram of each sample after 1 to 7 days preservation was calculated based on the assumption that the increased amount measured to that of 0 day preservation was the amount of moisture absorbed by each sample.

[3] = Inhibition of formation of calcium phosphate precipitate (solubilized calcium); type: physicochemical; settings: calcium chloride solution with saccharide mixed with phosphate solution pH 6.8, 37° C., three hours, supernatant, n=3
Description: When phosphate ion is added to a calcium chloride aqueous solution, calcium phosphate, an insoluble salt, is formed from calcium ion and phosphate ion and then precipitated. Effects of α-maltosyl α,α-trehalose and other saccharides on the phenomenon were investigated as follows. A calcium chloride aqueous solution was prepared by the steps of adding 3.68 grams of calcium chloride dihydrate to deionized water to dissolve therein and adding deionized water to the solution to give a total volume of 200 ml. α-Maltosyl α,α-trehalose, prepared by the method in Experiment 1, maltotetraose, and anhydrous crystalline sucrose were used as saccharides for the test. […]
Twenty-six grams, d.s.b., of either of the saccharides for the test were added to five milliliters of the above calcium chloride solution and dissolved by adding additional deionized water. […] The calcium concentration (the solubilized calcium concentration) of each supernatant was measured using “ZEEMAN 5100”, an atomic adsorption-photometer commercialized by Perkin-Elmar Japan Co. Ltd., Kanagawa, Japan. […]
The above procedure was carried out for individual each sample (three kinds of saccharides and control) for three times and the average value of the solubilized calcium concentration was calculated.

[4] = Description: The changes of solubility in water of metal ion compounds were examined under coexistence of α-maltosyl α,α-trehalose and metal ion compounds. α-Maltosyl α,α-trehalose prepared by the method in Experiment 1 was used for the tests. […] Solutions prepared by dissolving the same amount of metal ion compounds only were prepared as controls. After dissolving the contents completely, all the beakers were allowed to stand at room temperature (25° C.) for 24 hours. Successively, precipitation of crystals was judged by macroscopic observation. In the case of precipitating crystals, the formed crystals were collected and analyzed for components by the conventional method.

Compound: O=C1O[C@H]([C@@H](O)CO)C(O)=C1O [14.8 mM AsA, L-ascorbic acid]
- Degree of coloring (Abs. at 420 nm), preserved for 40 hrs ([1]; 40 hrs): 0.012
- Degree of coloring (Abs. at 420 nm), preserved for 96 hrs ([1]; 96 hrs): 0.166

Compound: O.O.[Ca+2].[Cl-].[Cl-] [CaCl2•2H2O, calcium chloride dihydrate]
- Moisture content/g-sample, 1 day ([2]; 25° C., relative humidity 52.8%, 1 day): 0.319 g
- Moisture content/g-sample, 2 days ([2]; 25° C., relative humidity 52.8%, 2 days): 0.359 g
- Moisture content/g-sample, 3 days ([2]; 25° C., relative humidity 52.8%, 3 days): 0.405 g
- Moisture content/g-sample, 7 days ([2]; 25° C., relative humidity 52.8%, 7 days): 0.430 g
- Moisture content/g-sample, 0 day ([2]; before preservation, drying loss method): 0.245 g

Compound: OC[C@H]1O[C@H](O[C@H]2[C@H](O)[C@@H](O)[C@@H](O[C@H]3[C@H](O)[C@@H](O)[C@@H](O[C@H]4[C@H](O)[C@@H](O)C(O)O[C@@H]4CO)O[C@@H]3CO)O[C@@H]2CO)[C@H](O)[C@@H](O)[C@@H]1O (stereo partly shown) [Maltotetraose, maltotetraose]
- Concentration of solubilized calcium (average ± standard deviation) [3]: 6910 ± 830 ng/mL

Compound: O.O.O.O.[Cl][Mn][Cl] [Manganese chloride, manganese chloride tetrahydrate]
- Solubility in water in the presence of α-maltosyl α,α-trehalose [4]: remarkably improved

Compound: O.O.O.O.O.O.[Cl-].[Cl-].[Sr+2] [Strontium chloride, Strontium chloride hexahydrate]
- Precipitation of crystal, in the absence of α-maltosyl α,α-trehalose ([4]; 0.1 mole metal ion compound only in 30 g water, dissolved by heating, 25° C. for 24 hours, macroscopic observation): Precipitated
